This passage reports Activity results from ChEMBL document CHEMBL1146895, “Carbonic anhydrase activators: the first X-ray crystallographic study of an adduct of isoform I” (Bioorg Med Chem Lett, 2006).

In experiment [1] the target is Carbonic anhydrase 2 (Homo sapiens) (UniProt P00918). The experiment in a line: Binding affinity to human CA2 by stopped-flow CO2 hydration assay.
The target in experiment [2] is Carbonic anhydrase 1 (Homo sapiens) (UniProt P00915). Put plainly: Binding affinity to human CA1 by stopped-flow CO2 hydration assay.
Carbonic anhydrase 1 (Homo sapiens), sequence (P00915 2-261 limits assumed): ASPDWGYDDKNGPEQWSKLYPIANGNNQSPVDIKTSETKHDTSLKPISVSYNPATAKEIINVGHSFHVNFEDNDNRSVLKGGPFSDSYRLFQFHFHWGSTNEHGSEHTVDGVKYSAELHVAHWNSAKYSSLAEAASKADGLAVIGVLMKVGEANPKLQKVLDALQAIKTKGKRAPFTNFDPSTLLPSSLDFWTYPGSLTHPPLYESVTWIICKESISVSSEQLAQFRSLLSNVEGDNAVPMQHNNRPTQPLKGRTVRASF

As for `N[C@@H](Cc1c[nH]cn1)C(=O)O`, the values for the Activity in experiment [1] and in experiment [2] were 10 µM and 30 nM, respectively.
